The structures appear in SMILES notation.

The target in the test is T1, human PDE4D catalytic domain (Homo sapiens, UniProt Q08499).
T1 construct: UniProt no; Q08499 [S380-L740]
T1 sequence (Q08499 380-740): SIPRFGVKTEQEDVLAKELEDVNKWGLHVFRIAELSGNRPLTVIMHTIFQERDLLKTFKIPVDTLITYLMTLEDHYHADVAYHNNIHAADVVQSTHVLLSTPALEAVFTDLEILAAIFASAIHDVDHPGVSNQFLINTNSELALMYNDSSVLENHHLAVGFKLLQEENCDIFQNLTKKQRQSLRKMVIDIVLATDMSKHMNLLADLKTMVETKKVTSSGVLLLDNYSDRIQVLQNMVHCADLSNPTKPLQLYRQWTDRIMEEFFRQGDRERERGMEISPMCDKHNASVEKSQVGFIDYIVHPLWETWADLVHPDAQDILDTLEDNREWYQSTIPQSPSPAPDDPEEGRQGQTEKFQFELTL
Nature of the test: PDE4 Assay. It counts as biochemical. The conditions noted are these: human PDE4D catalytic domain (S380-L740), TR-FRET with FAM-cAMP; expressed as a range of IC50; read-out: PDE4 Potency Range. On the procedure:
The human PDE4D catalytic domain (UniProt no. Q08499 [S380-L740]) was incubated with a mixture of non-labelled cAMP (cyclic adenosine monophosphate) and fluorescein amidite (FAM) conjugated cAMP and titrated test or reference compound. Following brief incubation the enzymatic reaction was stopped by addition of binding buffer containing nanoparticles with immobilized trivalent metal ions capable of binding 1) AMP phospho groups and 2) terbium (Tb) donor fluorophores. Subsequent excitation of the Tb donor triggers time-resolved FRET to adjacent FAM acceptor molecules resulting in light emission. In the presence of a PDE4 inhibitor, AMP generation was reduced resulting in a lower fluorescence signal. The cAMP phosphodiester is not bound by the detection system.
The results were calculated as the molar concentrations resulting in 50% inhibition of the substrate cleavage compared to controls samples, and are expressed as a range of IC50 (nM).
With `CCc1nn(CCOC(=O)c2ccno2)c2c1C(=O)NCC1(CCOCC1)C2` [Example 1, 2-(3-ethyl-4-oxo-spiro[6,8-dihydro-5H-pyrazolo[4,3-c]azepine-7,4′-tetrahydropyran]-1-yl)ethyl isoxazole-5-carboxylate], the IC50 is 100 to 500 nM.

On to `CCc1nn(CCOC(=O)c2cocn2)c2c1C(=O)NCC1(CCOCC1)C2` [Example 2, 2-(3-ethyl-4-oxo-spiro[6,8-dihydro-5H-pyrazolo[4,3-c]azepine-7,4′-tetrahydropyran]-1-yl)ethyl oxazole-4-carboxylate], for which the IC50 is more than 500 nM.

For `CCc1nn(CCOC(=O)c2cnn(C)c2)c2c1C(=O)NCC1(CCOCC1)C2` [Example 3, 2-(3-ethyl-4-oxo-spiro[6,8-dihydro-5H-pyrazolo[4,3-c]azepine-7,4′-tetrahydropyran]-1-yl)ethyl 1-methylpyrazole-4-carboxylate], the IC50 is more than 500 nM.

For `CCc1nn(CCOC(=O)c2cc(C)on2)c2c1C(=O)NCC1(CCOCC1)C2` [Example 4, 2-(3-ethyl-4-oxo-spiro[6,8-dihydro-5H-pyrazolo[4,3-c]azepine-7,4′-tetrahydropyran]-1-yl)ethyl 5-methylisoxazole-3-carboxylate], the IC50 lay in the range of 100 to 500 nM.

With `CCc1nn(CCOC(=O)c2coc(C)n2)c2c1C(=O)NCC1(CCOCC1)C2` [Example 5, 2-(3-ethyl-4-oxo-spiro[6,8-dihydro-5H-pyrazolo[4,3-c]azepine-7,4′-tetrahydropyran]-1-yl)ethyl 2-methyloxazole-4-carboxylate], the IC50 is more than 500 nM.

With `CCc1nn(CCOC(=O)c2cnc(C)o2)c2c1C(=O)NCC1(CCOCC1)C2` [Example 6, 2-(3-ethyl-4-oxo-spiro[6,8-dihydro-5H-pyrazolo[4,3-c]azepine-7,4′-tetrahydropyran]-1-yl)ethyl 2-methyloxazole-5-carboxylate], the IC50 was more than 500 nM.

Take `CCc1nn(CCOC(=O)c2cscn2)c2c1C(=O)NCC1(CCOCC1)C2` [Example 7, 2-(3-ethyl-4-oxo-spiro[6,8-dihydro-5H-pyrazolo[4,3-c]azepine-7,4′-tetrahydropyran]-1-yl)ethyl thiazole-4-carboxylate]: the IC50 was more than 500 nM.

On to `CCc1nn(CCOC(=O)C2CCOCC2)c2c1C(=O)NCC1(CCOCC1)C2` [Example 8, 2-(3-ethyl-4-oxo-spiro[6,8-dihydro-5H-pyrazolo[4,3-c]azepine-7,4′-tetrahydropyran]-1-yl)ethyl tetrahydropyran-4-carboxylate], for which the IC50 was more than 500 nM.

For the compound `CCc1nn(CCOC(=O)Cc2cccn2C)c2c1C(=O)NCC1(CCOCC1)C2` [Example 9, 2-(3-ethyl-4-oxo-spiro[6,8-dihydro-5H-pyrazolo[4,3-c]azepine-7,4′-tetrahydropyran]-1-yl)ethyl 2-(1-methylpyrrol-2-yl)acetate], the IC50 is more than 500 nM.

Consider `CCc1nn(CCOC(=O)c2cc(C)n(C)n2)c2c1C(=O)NCC1(CCOCC1)C2` [Example 10, 2-(3-ethyl-4-oxo-spiro[6,8-dihydro-5H-pyrazolo[4,3-c]azepine-7,4′-tetrahydropyran]-1-yl)ethyl 1,5-dimethylpyrazole-3-carboxylate], for which the IC50 was more than 500 nM.

As for `CCc1nn(CCOC(=O)Cc2cc(C)on2)c2c1C(=O)NCC1(CCOCC1)C2` [Example 11, 2-(3-ethyl-4-oxo-spiro[6,8-dihydro-5H-pyrazolo[4,3-c]azepine-7,4′-tetrahydropyran]-1-yl)ethyl 2-(5-methylisoxazol-3-yl)acetate], the IC50 was more than 500 nM.

Take `CCc1nn(CCOC(=O)Cc2cc(C)no2)c2c1C(=O)NCC1(CCOCC1)C2` [Example 12, 2-(3-ethyl-4-oxo-spiro[6,8-dihydro-5H-pyrazolo[4,3-c]azepine-7,4′-tetrahydropyran]-1-yl)ethyl 2-(3-methylisoxazol-5-yl)acetate]: the IC50 is more than 500 nM.

Consider `CCc1nn(CCOC(=O)c2cc(C)ns2)c2c1C(=O)NCC1(CCOCC1)C2` [Example 13, 2-(3-ethyl-4-oxo-spiro[6,8-dihydro-5H-pyrazolo[4,3-c]azepine-7,4′-tetrahydropyran]-1-yl)ethyl 3-methylisothiazole-5-carboxylate], for which the IC50 was 100 to 500 nM.

Turning to `CCc1nn(CCOC(=O)c2nc(C)cs2)c2c1C(=O)NCC1(CCOCC1)C2` [Example 14, 2-(3-ethyl-4-oxo-spiro[6,8-dihydro-5H-pyrazolo[4,3-c]azepine-7,4′-tetrahydropyran]-1-yl)ethyl 4-methylthiazole-2-carboxylate], the IC50 was in the range of 100 to 500 nM.

As to `CCc1nn(CCOC(=O)Cc2csc(C)n2)c2c1C(=O)NCC1(CCOCC1)C2` [Example 15, 2-(3-ethyl-4-oxo-spiro[6,8-dihydro-5H-pyrazolo[4,3-c]azepine-7,4′-tetrahydropyran]-1-yl)ethyl 2-(2-methylthiazol-4-yl)acetate], the IC50 is more than 500 nM.

As for `CCc1nn(CCOC(=O)C2CCN(C(C)=O)CC2)c2c1C(=O)NCC1(CCOCC1)C2` [Example 16, 2-(3-ethyl-4-oxo-spiro[6,8-dihydro-5H-pyrazolo[4,3-c]azepine-7,4′-tetrahydropyran]-1-yl)ethyl 1-acetylpiperidine-4-carboxylate], the IC50 is more than 500 nM.

Consider `CCc1nn(CCCOC(=O)c2c[nH]cn2)c2c1C(=O)NCC1(CCOCC1)C2` [Example 17, 3-(3-ethyl-4-oxo-spiro[6,8-dihydro-5H-pyrazolo[4,3-c]azepine-7,4′-tetrahydropyran]-1-yl)propyl 1H-imidazole-4-carboxylate], for which the IC50 was more than 500 nM.

Take `CCc1nn(CCCOC(=O)c2cc[nH]n2)c2c1C(=O)NCC1(CCOCC1)C2` [Example 18, 3-(3-ethyl-4-oxo-spiro[6,8-dihydro-5H-pyrazolo[4,3-c]azepine-7,4′-tetrahydropyran]-1-yl)propyl 1H-pyrazole-3-carboxylate]: the IC50 was 100 to 500 nM.

On to `CCc1nn(CCCOC(=O)c2ncc[nH]2)c2c1C(=O)NCC1(CCOCC1)C2` [Example 19, 3-(3-ethyl-4-oxo-spiro[6,8-dihydro-5H-pyrazolo[4,3-c]azepine-7,4′-tetrahydropyran]-1-yl)propyl 1H-imidazole-2-carboxylate], for which the IC50 is more than 500 nM.

In the case of `CCc1nn(CCCOC(=O)c2cn[nH]c2)c2c1C(=O)NCC1(CCOCC1)C2` [Example 20, 3-(3-ethyl-4-oxo-spiro[6,8-dihydro-5H-pyrazolo[4,3-c]azepine-7,4′-tetrahydropyran]-1-yl)propyl 1H-pyrazole-4-carboxylate], the IC50 is 100 to 500 nM.

With `CCc1nn(CCCOC(=O)c2ccon2)c2c1C(=O)NCC1(CCOCC1)C2` [Example 21, 3-(3-ethyl-4-oxo-spiro[6,8-dihydro-5H-pyrazolo[4,3-c]azepine-7,4′-tetrahydropyran]-1-yl)propyl isoxazole-3-carboxylate], the IC50 is more than 500 nM.

As to `CCc1nn(CCCOC(=O)c2ccno2)c2c1C(=O)NCC1(CCOCC1)C2` [Example 22, 3-(3-ethyl-4-oxo-spiro[6,8-dihydro-5H-pyrazolo[4,3-c]azepine-7,4′-tetrahydropyran]-1-yl)propyl isoxazole-5-carboxylate], the IC50 was in the range of 100 to 500 nM.

Consider `CCc1nn(CCCOC(=O)c2cocn2)c2c1C(=O)NCC1(CCOCC1)C2` [Example 23, 3-(3-ethyl-4-oxo-spiro[6,8-dihydro-5H-pyrazolo[4,3-c]azepine-7,4′-tetrahydropyran]-1-yl)propyl oxazole-4-carboxylate], for which the IC50 was more than 500 nM.

On to `CCc1nn(CCCOC(=O)c2cnco2)c2c1C(=O)NCC1(CCOCC1)C2` [Example 24, 3-(3-ethyl-4-oxo-spiro[6,8-dihydro-5H-pyrazolo[4,3-c]azepine-7,4′-tetrahydropyran]-1-yl)propyl oxazole-5-carboxylate], for which the IC50 is more than 500 nM.

Take `CCc1nn(CCCOC(=O)c2c[nH]nn2)c2c1C(=O)NCC1(CCOCC1)C2` [Example 25, 3-(3-ethyl-4-oxo-spiro[6,8-dihydro-5H-pyrazolo[4,3-c]azepine-7,4′-tetrahydropyran]-1-yl)propyl 1H-triazole-4-carboxylate]: the IC50 fell in the range of 100 to 500 nM.

For `CCc1nn(CCCOC(=O)c2nc[nH]n2)c2c1C(=O)NCC1(CCOCC1)C2` [Example 26, 3-(3-ethyl-4-oxo-spiro[6,8-dihydro-5H-pyrazolo[4,3-c]azepine-7,4′-tetrahydropyran]-1-yl)propyl 1H-1,2,4-triazole-3-carboxylate], the IC50 is more than 500 nM.

For the compound `CCc1nn(CCCOC(=O)c2cnon2)c2c1C(=O)NCC1(CCOCC1)C2` [Example 27, 3-(3-ethyl-4-oxo-spiro[6,8-dihydro-5H-pyrazolo[4,3-c]azepine-7,4′-tetrahydropyran]-1-yl)propyl 1,2,5-oxadiazole-3-carboxylate], the IC50 fell in the range of 100 to 500 nM.

Take `CCc1nn(CCCOC(=O)C2CCOC2)c2c1C(=O)NCC1(CCOCC1)C2` (stereo not drawn) [Example 28, 3-(3-ethyl-4-oxo-spiro[6,8-dihydro-5H-pyrazolo[4,3-c]azepine-7,4′-tetrahydropyran]-1-yl)propyl tetrahydrofuran-3-carboxylate]: the IC50 was more than 500 nM.

Regarding `CCc1nn(CCCOC(=O)c2cccnn2)c2c1C(=O)NCC1(CCOCC1)C2` [Example 29, 3-(3-ethyl-4-oxo-spiro[6,8-dihydro-5H-pyrazolo[4,3-c]azepine-7,4′-tetrahydropyran]-1-yl)propyl pyridazine-3-carboxylate], the IC50 is more than 500 nM.

As to `CCc1nn(CCCOC(=O)c2ccnnc2)c2c1C(=O)NCC1(CCOCC1)C2` [Example 30, 3-(3-ethyl-4-oxo-spiro[6,8-dihydro-5H-pyrazolo[4,3-c]azepine-7,4′-tetrahydropyran]-1-yl)propyl pyridazine-4-carboxylate], the IC50 is more than 500 nM.

The values are drawn from patent US11065257B2, “Substituted pyrazoloazepin-4-ones and their use as phosphodiesterase inhibitors” (LEO Pharma A/S, priority 2016, dated 2021).
